Source: patent publication US7759078B2, “Diagnosis and treatment of cancer” (priority 2003, dated 2010)

Assays:
[1] = test system: voltage gated Na+ channel in MAT-LyLu rat prostatic cancer cell line; assay: current recordings of VGSC functional expression in MAT-LyLu cells after 24 h incubation; type: cell-based
Description: FIG. 9. (A) Current recordings from the MAT-LyLu rat prostatic cancer cell line elicited by depolarising the membrane from a holding potential of −100 mV to 0 mV following 24 h incubation in 0% FBS, 100 ng/ml EGF and 1 μM AG1478. […] (B) Histograms showing mean peak Na^+ current density ± standard error following 24 h incubation in 0% FBS, 100 ng/ml EGF, 1 μM AG1478 and EGF receptor antibody (1 μg/ml). Statistical significance is indicated as **=p<0.01 and ***=p<0.001, respectively.
Epidermal growth factor (EGF) upregulates VGSC functional expression. […] This effect is blocked by co-application of EGF receptor kinase inhibitor (AG1478; Calbiochem, San Diego, Calif., USA). Application of EGF receptor antibody (Oncogene, Cambridge, Mass., USA) also reduces the basal VGSC current implying that the phenomenon occurs endogenously.

[2] = test system: MAT-LyLu cells; conditions: cited from earlier work
[3] = test system: MAT-LyLu and PC-3 cells; conditions: cited from earlier work
[4] = test system: PN1 expression in PC12 cells; conditions: cited from earlier work

For `COc1cc2ncnc(Nc3cccc(Cl)c3)c2cc1OC` [AG1478], the “effect on EGF potentiation of functional VGSC expression” value ([1]; co-application with EGF, 1 μM AG1478, 24 h) was “blocked”.
In the case of `NC1=N[C@H](O)[C@H]2[C@H]3O[C@]4(O)O[C@@H]([C@@H](O)[C@@]2(N1)[C@@H]4O)[C@]3(O)CO` [TTX, tetrodotoxin], the “effect on cell morphology” value [2] is given as “retract their processes and become compact”, the “cells' invasion in vitro” value [3] is given as “significantly reduced” and the “reduction of the cells' invasive potential” value [3] is given as about 30%.
In the case of Epidermal growth factor [EGF], the “VGSC functional expression (peak Na+ current density)” value ([1]; 24 h incubation, 100 ng/ml EGF) is reported as “upregulates”.
For nerve growth factor [NGF], the PN1 expression [4] is listed as “upregulates”.
